According to ChEMBL document CHEMBL4321852, “Structure-Based and Property-Driven Optimization of N-Aryl Imidazoles toward Potent and Selective Oral RORγt Inhibitors” (J Med Chem, 2019):
pIC50: −log10 of the molar value.

Experiments:
[1] = Inverse agonist activity at RORgammat in rat whole blood assessed as reduction in Con A/IL-23-stimulated IL-17 secretion after 72 hrs by ELISA
[2] = target: T1, Nuclear receptor ROR-gamma (Homo sapiens, UniProt P51449); experiment: Inverse agonist activity at RORgammat in human whole blood assessed as reduction in Con A/IL-23-stimulated IL-17 secretion after 72 hrs by ELISA; format: tissue-based
T1 sequence (P51449 whole entry): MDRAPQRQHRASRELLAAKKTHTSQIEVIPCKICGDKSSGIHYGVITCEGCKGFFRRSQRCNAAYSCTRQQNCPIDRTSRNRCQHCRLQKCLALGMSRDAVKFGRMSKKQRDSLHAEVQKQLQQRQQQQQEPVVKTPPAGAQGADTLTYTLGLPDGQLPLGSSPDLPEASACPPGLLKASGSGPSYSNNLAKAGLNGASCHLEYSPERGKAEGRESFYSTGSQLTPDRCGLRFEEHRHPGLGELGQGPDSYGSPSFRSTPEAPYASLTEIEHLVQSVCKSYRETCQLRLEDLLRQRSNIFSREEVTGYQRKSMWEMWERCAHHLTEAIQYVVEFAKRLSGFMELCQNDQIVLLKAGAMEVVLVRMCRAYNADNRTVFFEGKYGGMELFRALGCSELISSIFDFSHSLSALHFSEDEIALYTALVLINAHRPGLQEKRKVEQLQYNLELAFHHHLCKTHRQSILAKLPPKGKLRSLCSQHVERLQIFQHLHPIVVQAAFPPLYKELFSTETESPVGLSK

[3] = Distribution coefficient of the compound, high-throughput logD using octanol-buffer at pH 7.4 by LC-MS/MS analysis shake flask method; format: physicochemical
[4] = Terminal half life in Sprague-Dawley rat at 1 mg/kg, iv; format: ADME, organism-based; conditions: in vivo, read-out: beta t1/2 (converted)
[5] = Dose normalized AUC in DA rat at 5 mg/kg, po; format: ADME, organism-based; conditions: in vivo
Estrogen receptor = target: T2, Estrogen receptor (Homo sapiens, UniProt P03372); experiment: Inhibition of Gal4-tagged ERalpha LBD (unknown origin) by cell based luciferase reporter gene assay
T2 sequence (P03372 whole entry): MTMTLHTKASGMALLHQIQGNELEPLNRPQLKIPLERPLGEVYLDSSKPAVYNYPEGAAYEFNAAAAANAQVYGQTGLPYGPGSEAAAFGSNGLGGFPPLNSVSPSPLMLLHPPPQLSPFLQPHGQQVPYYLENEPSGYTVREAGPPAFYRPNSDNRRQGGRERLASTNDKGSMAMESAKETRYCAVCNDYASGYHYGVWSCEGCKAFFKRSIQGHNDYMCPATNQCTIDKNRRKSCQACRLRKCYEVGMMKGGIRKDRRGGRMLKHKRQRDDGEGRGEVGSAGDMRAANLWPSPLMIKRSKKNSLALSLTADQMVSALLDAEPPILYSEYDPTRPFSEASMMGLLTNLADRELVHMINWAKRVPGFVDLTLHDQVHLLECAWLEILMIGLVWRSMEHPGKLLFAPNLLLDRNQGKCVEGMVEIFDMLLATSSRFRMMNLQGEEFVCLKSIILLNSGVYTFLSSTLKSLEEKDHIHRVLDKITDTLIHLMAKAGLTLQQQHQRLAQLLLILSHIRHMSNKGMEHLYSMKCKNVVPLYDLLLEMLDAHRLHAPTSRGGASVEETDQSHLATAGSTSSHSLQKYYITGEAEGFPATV

[6] = target: T3, Nuclear receptor subfamily 1 group I member 2 (Homo sapiens, UniProt O75469); experiment: Inhibition of Gal4-tagged PXR LBD (unknown origin) by cell based luciferase reporter gene assay
T3 sequence (O75469 whole entry): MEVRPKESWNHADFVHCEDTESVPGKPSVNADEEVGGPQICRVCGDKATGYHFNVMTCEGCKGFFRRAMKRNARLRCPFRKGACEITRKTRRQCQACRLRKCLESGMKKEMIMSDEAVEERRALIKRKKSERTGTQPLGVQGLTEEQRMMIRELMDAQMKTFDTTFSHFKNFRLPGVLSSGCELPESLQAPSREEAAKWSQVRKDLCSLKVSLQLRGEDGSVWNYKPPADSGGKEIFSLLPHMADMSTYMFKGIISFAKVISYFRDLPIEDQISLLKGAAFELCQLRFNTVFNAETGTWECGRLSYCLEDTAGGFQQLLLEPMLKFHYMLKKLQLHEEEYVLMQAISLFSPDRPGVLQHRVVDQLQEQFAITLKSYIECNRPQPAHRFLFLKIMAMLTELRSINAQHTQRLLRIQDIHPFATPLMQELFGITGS

Glucocorticoid receptor = target: T4, Glucocorticoid receptor (Homo sapiens, UniProt P04150); experiment: Inhibition of Gal4-tagged GR LBD (unknown origin) by cell based luciferase reporter gene assay
T4 sequence (P04150 whole entry): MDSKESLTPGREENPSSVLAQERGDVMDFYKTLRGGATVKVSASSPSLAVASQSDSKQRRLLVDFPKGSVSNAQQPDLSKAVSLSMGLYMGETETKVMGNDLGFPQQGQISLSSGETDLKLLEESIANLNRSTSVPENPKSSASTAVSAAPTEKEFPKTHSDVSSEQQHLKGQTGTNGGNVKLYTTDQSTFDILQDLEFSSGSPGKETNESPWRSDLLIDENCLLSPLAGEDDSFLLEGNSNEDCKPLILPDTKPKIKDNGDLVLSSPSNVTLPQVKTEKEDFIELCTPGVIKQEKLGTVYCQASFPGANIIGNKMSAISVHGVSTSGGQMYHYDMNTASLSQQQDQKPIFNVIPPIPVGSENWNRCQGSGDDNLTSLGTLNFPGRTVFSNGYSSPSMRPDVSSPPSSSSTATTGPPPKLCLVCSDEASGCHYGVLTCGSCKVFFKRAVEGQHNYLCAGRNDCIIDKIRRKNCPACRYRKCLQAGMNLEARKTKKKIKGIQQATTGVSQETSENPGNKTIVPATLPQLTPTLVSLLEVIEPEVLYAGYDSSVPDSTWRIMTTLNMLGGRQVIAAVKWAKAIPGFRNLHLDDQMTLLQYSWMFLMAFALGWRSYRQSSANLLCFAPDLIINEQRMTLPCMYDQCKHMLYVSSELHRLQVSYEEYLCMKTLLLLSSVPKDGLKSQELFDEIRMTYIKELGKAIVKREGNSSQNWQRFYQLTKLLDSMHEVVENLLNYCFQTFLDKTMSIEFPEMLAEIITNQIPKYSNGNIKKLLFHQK

pIC50 [1]: 6.15
pIC50 [2]: 5.87
logD [3]: 2
half-life [4]: 5.3 h
AUC/dose [5]: 11391 nM·h
pIC50 (Estrogen receptor): < 5.00
pIC50 [6]: < 5.00
pIC50 (Glucocorticoid receptor): < 5.00
Structure (SMILES): Cc1c(C2(C(F)(F)F)CC2)nc(C2CC2)n1-c1c(Cl)ccc(N2CC3(CC(C(=O)O)C3)C2)c1Cl (single isomer, unassigned; atropisomer)
